Experimental data taken from US11279944B2, “Of herbicide tolerance to 4-hydroxyphenylpyruvate dioxygenase (HPPD) inhibitors by down-regulation of HPPD expression in soybean” (BASF AGRICULTURAL SOLUTIONS SEED US LLC, priority 2017, dated 2022).

Key:
[1] = test system: soybean plants transformed by pCPE826 (Pf-Evo41+HPPD-Gm RNAi); experiment: Field trial of the T1 generation, herbicide tolerance; details: in vivo
Excerpt: (§1) The above result was confirmed in a field trial of the T1 generation.

[2] = test system: soybean plants transformed by pMLS0519 (Pf-KGEPHSVV); experiment: as above; format: in vivo; details: Puerto Rico, among the most effective constructs
Excerpt: as §1

Compound: CS(=O)(=O)c1cc(C(F)(F)F)ccc1C(=O)c1cnoc1C1CC1 [Isoxaflutole, (5-cyclopropyl-4-isoxazolyl)[2-(methylsulfonyl)-4-(trifluoromethyl)phenyl]methanone]
- tolerance to HPPD inhibitor [1]: good tolerance
- tolerance to HPPD inhibitor [2]: good tolerance
